The text below walks through data of US6414222B1, “Gene combinations for herbicide tolerance in corn” (Regents of the University of Minnesota, priority 1993, dated 2002).

For assay [1], the system named is acetyl-coenzyme A carboxylase (ACCase) (EC 6.4.1.2) in maize chloroplasts. Briefly: Acetyl-Coenzyme A Carboxylase (ACCase) activity of maize chloroplasts. The assay is classed as biochemical. As to the method: (§1) Maize chloroplasts, isolated as described above, were suspended in buffer C (0.1 M Tricine-KOH, pH 8.0; 0.3 M glycerol, and 1 mM DTT) and homogenized in a glass tissue homogenizer. The disrupted chloroplast fraction was centrifuged at 16,000 g for 15 minutes. The supernatant was desalted on a Sephadex G-25 column (1.5×5 cm equilibrated with 0.1 M Tricine-KOH, pH 8.0; and 0.3 M glycerol) and assayed directly. ACCase activity (B. J. Nikolau et al., Arch. Biochem. Biophys., 211, 605-612 (1981)) was assayed at 30° C. in a 0.2 ml volume which contained 1 mM ATP, 3 mM acetyl coenzyme A, 2.5 mM MgCl2, 50 mM KCl, 0.5 mM DTT, and 15 mM [^14C]NaHCO3 (0.17 mCi/mmol). Reactions were initiated by addition of acetyl coenzyme A and stopped by addition of 25 μl of 12 N HCl. Product formation was determined by the radioactivity found in an acid stable fraction by liquid scintillation spectrometry. Enzyme activity was linear for 15 minutes.

Assay [2] has as its system ACCase of cell line 2167-9/2160-154 H-1. Briefly: Herbicide inhibition of ACCase, line H-1. The assay is classed as biochemical, maize. To be noted: cell line H-1. Here is the method:
as §1
(§2) Acetyl Coenzyme A Carboxylase (ACCase) was extracted from cell lines S-1, H-1 and H-2 and assayed as described in detail for maize cell line S-2, above.

Assay [3] deals with ACCase of cell line 2167-9/2160-154 H-2. Briefly: Herbicide inhibition of ACCase, line H-2. To be noted: cell line H-2. The assay is classed as biochemical, maize. Here is the method: as §1, §2
For assay [4], the system named is fatty acid synthesis in corn seedling chloroplasts. Briefly: [14C]acetate and [14C]pyruvate incorporation into fatty acids in isolated chloroplasts. It counts as biochemical, Corn (Z. mays L.). To be noted: 10 minute assay time, mean of two experiments ± standard error. As to the method:
Corn (Z. mays L., ‘B37×Oh43’) seeds were germinated in darkness for 96 hours in vermiculite in an incubation chamber maintained at 30° C., 80% RH. Seedlings were then transferred to a growth chamber with a 16 hour light (25° C.) and an 8 hour dark (20° C.) cycle, 90% relative humidity (RH). After greening 48 hours, seedlings were returned to the dark incubation chamber for 12 hours to deplete chloroplast starch reserves. Seedlings were harvested 6 days after planting. Pea (P. sativum L., ‘PI 9901-C’) seedlings were grown in vermiculite in a growth chamber with a 16 hour light (21° C.) and 8 hour dark (16° C.) cycle, 80% RH. Peas were harvested 10 to 13 days after planting. Black Mexican Sweet (BMS) corn suspension cultures were maintained in a supplemented Murashige-Skoog (MS) medium (C. E. Green, Hort. Sci., 12, 7-10 (1977)), and subcultured weekly by 20-fold dilution of the suspension culture into fresh medium.
Chloroplasts from corn and pea seedlings were isolated at 4° C. (K. Cline et al., J. Biol. Chem., 260, 3691-3696 (1985)). Seedlings (50 g of shoots) were homogenized in 200 ml buffer A (50 mM HEPES-NaOH pH 7.5, 330 mM sorbitol, 0.1% w/v BSA, 1 mM MgCl2, 1 mM MnCl2, 2 mM EDTA, 5 mM isoascorbate, 1.3 mM glutathione) in an omnimixer (five, 3-second bursts at full speed). The homogenate was filtered through six layers of cheesecloth and two layers of miracloth, and then centrifuged at 3000 g for 3 minutes with hand-braking. The pellet was gently resuspended in buffer A and layered onto a preformed linear Percoll gradient (50 mM HEPES-NaOH pH 7.5, 330 mM sorbitol, 1.9 mM isoascorbate, 1.08 mM glutathione, 0.1% w/v BSA, 50% Percoll) which was centrifuged at 3000 g for 20 minutes in a Sorvall HB-4 rotor. The lower band in the gradient, containing intact chloroplasts, was washed twice by gently resuspending it in 20 ml of buffer B (50 mM HEPES-NaOH, pH 7.5, and 330 mM sorbitol) followed by repelleting (3000 g, 5 minutes). The final pellet, consisting of intact chloroplasts, was resuspended in 2 to 3 ml of buffer B and stored on ice in the dark until use.
[^14C]acetate and [^14C]pyruvate were used as precursors to measure fatty acid biosynthesis in isolated chloroplasts (B. Liedvogel et al., Planta, 169, 481-489 (1986)). [^14C]acetate incorporation was assayed in a 0.5 ml-volume containing: 50 mM HEPES-NaOH (pH 7.5), 330 mM sorbitol, 5 mM KH2PO4, 10 mM NaHCO3, 1 mM MgCl2, 1 mM ATP, 0.1 mM CoA, 0.15 mM [^14C]acetate (3.33 mCi/mmol), and chloroplasts (20 to 50 μg chlorophyll). [^14C]pyruvate incorporation into fatty acids was assayed in the same medium except that it included 2 mM TPP, 1 mM NAD^+, 0.15 mM [^14C]-pyruvate (1.33 mCi/mmol), but no acetate. […] Aliquots (50 μl) were counted for radioactivity by liquid scintillation spectrometry.

Assay [5] deals with Heterozygous tolerant Inbred × H1 seedlings. Kind of assay: Foliar herbicide application, lethal rate. It counts as in vivo, maize (Zea mays L.). To be noted: Heterozygous tolerant Inbred × H1, average of A188- and A619-derived F1 families. As to the method: Foliar applications of the herbicides were made to greenhouse- or field-grown seedlings at the three- to five-leaf stage. Herbicides were applied in a spray volume of 187 l/ha that includes 2.3 l/ha crop oil concentrate to enhance uptake. Sethoxydim and haloxyfop were applied using commercial formulations (Poast from BASF Corp and Verdict from Dow Elanco, respectively). Visual observations were recorded 14-21 days after herbicide treatments.
For each mutant, two homozygous tolerant R4 families were derived from two different regenerated plants and two heterozygous F1 families were obtained from crosses of R3 homozygous tolerant lines with the susceptible inbreds A188 and A619. Sethoxydim and haloxyfop each were applied at rates ranging from 0.0034 to 7.0 kg/ha. For each genotype a five-rate doubling series was used to determine herbicide lethality. Because of the large differences between wildtype and mutants in herbicide susceptibility, the ranges of herbicide application rates were varied. Two five plant/pot replicates of each family were evaluated for each rate. Herbicide injury symptoms were scored visually 21 days after herbicide treatment. The lethal rate was considered to be the lowest application rate resulting in death of all seedlings in the four replications of each homozygous tolerant genotype or in the eight replications of the heterozygous combinations.

Structures are written as SMILES.

Consider `CCCC(=NOCC)C1=C(O)CC(CC(C)SCC)CC1=O` (stereo not drawn) [Sethoxydim, 2-[1-(ethoxyimino)-butyl]-5-[2-(ethylthio)propyl]-3-hydroxy-2-cyclohexen-1-one], for which the “Effect on ACCase in maize chloroplasts” value in assay [1] is recorded as “inhibit”. The “Fold increase in herbicide concentration that inhibits ACCase activity by 50% vs unselected parent cell line” value is on record as 0 fold in assay [2], 0 fold in assay [3] and “no difference” in assay [3] (listed as sethoxydim). For the same compound, the “% Inhibition of [14C]acetate incorporation into fatty acids” value in assay [4] (Sethoxydim 10 μM) stood at 90%. The “% Inhibition of [14C]pyruvate incorporation into fatty acids” value in assay [4] (Sethoxydim 10 μM) is on record as 98%. Moreover, the Lethal rates in assay [5] is 0.055 kg/ha.

On to `CC(Oc1ccc(Oc2ncc(C(F)(F)F)cc2Cl)cc1)C(=O)O` (stereo not drawn) [Haloxyfop, 2-[4-[[3-chloro-5-(trifluoromethyl)-2-pyridinyl]oxy]phenoxy]-propanoic acid], for which the “Effect on ACCase in maize chloroplasts” value in assay [1] is “inhibit”. The “Fold increase in herbicide concentration that inhibits ACCase activity by 50% vs unselected parent cell line” value in assay [2] is given as 7 fold; in assay [2] (listed as haloxyfop), “more tolerant”; in assay [3] it was 0 fold; in assay [3] (listed as haloxyfop) it was “no difference”. The “% Inhibition of [14C]acetate incorporation into fatty acids” value in assay [4] (Haloxyfop 1 μM) is given as 89%. In assay [4] (Haloxyfop 1 μM), the “% Inhibition of [14C]pyruvate incorporation into fatty acids” value worked out at 99%. Also, the Lethal rates in assay [5] stood at 0.11 kg/ha.
